Tests used:
CaNT [1] = assay: Cytometric distribution of cell nuclei from CaNT tumors treated in mice with breathing carbogen; format: functional, cell-based; conditions: Mus musculus
CaNT [2] = assay: Cytometric distribution of cell nuclei from CaNT tumors treated in mice; format: functional, cell-based; conditions: Mus musculus
CaNT [3] = assay: Cytometric distribution of single cells from CaNT tumors treated in mice with breathing carbogen; format: functional, cell-based; conditions: Mus musculus
CaNT [4] = assay: Cytometric distribution of single cells from CaNT tumors treated in mice; format: functional, cell-based; conditions: Mus musculus
CaNT [5] = assay: Cytometric distribution of cell nuclei from CaNT tumors treated in mice with breathing air; format: functional, cell-based; conditions: Mus musculus
CaNT [6] = assay: Cytometric distribution of single cells from CaNT tumors treated in mice with breathing air; format: functional, cell-based; conditions: Mus musculus
[7] = Half life evaluated in plasma in vitro at 20 degree Centigrade; format: ADME, cell-free

half-life [7] [h] | Structure (SMILES) | Distribution (CaNT [1]) [%] | Distribution (CaNT [2]) [%] | Distribution (CaNT [3]) [%] | Distribution (CaNT [4]) [%] | Distribution (CaNT [5]) [%] | Distribution (CaNT [6]) [%]
– | O=C1N[C@H]2[C@H](CS[C@H]2CCCCCn2ccnc2[N+](=O)[O-])N1 | 0.69 | 0.85 | 3.4 | 1.2 | 11.7 | 16.5
2 | O=C(CCCC[C@@H]1SC[C@@H]2NC(=O)N[C@@H]21)NCCNC(=O)Cn1ccnc1[N+](=O)[O-] | – | – | – | – | – | –

From ChEMBL document CHEMBL1127291, “Bioreductive markers for hypoxic cells: 2-nitroimidazoles with biotinylated 1-substituents” (J Med Chem, 1994)
